Measurements published in patent US10106523B2, “Amide compound” (ASTELLAS PHARMA INC., priority 2014, dated 2018).

Legend:
[1] = test system: db/db mice with type 2 diabetes; experiment: Effect on albumin in urine of db/db mice with type 2 diabetes; type: in vivo, mouse; settings: 0.3 mg/kg po once per day for one week
Experimental: Test Example 7: Test for Investigation of Effect on Albumin in Urine of db/db Mice with Type 2 Diabetes
db/db Mice (male, 8-week old) with type 2 diabetes were used for the test. The albumin concentrations in urine samples obtained by urine collection for 24 hours were measured by an ELISA method using an anti-mouse albumin antibody (RAM/Alb/7S, Nordic Immunology), and the creatinine concentration in urine was measured using CRE-EN Kainos (Kainos Co., Ltd.). The albumin-creatinine ratio (ACR) in urine was calculated, and a group (n=12) not treated with the test compound and a group (n=12) treated with the test compound were allocated without a bias in ACR. The test compound suspended in a 0.5% methyl cellulose (MC) solution was orally administered to the group treated with the test compound at a dose of 0.3 mg/kg once per day for one week (10 mL/kg). […] Urine was collected for 24 hours from the completion of the final administration, and using the calculated ACR as an indicator, the improvement effect of the test compound on the early nephropathy of the mice with type 2 diabetes was investigated. The inhibitory rate of ACR of the group treated with the test compound by taking the ACR value of the group not treated with the test compound as 100% was determined.

human EP4 receptor = biological target: T1, human EP4 receptor (Homo sapiens, UniProt P35408); experiment: Evaluation test of human EP4 receptor affinity ([3H]PGE2 binding, membrane fraction); settings: 2.9 nmol/L [3H]PGE2, human EP4 cell membrane fraction, 25° C. 60 minutes; read-out: Ki value with respect to the human EP4 receptor
T1 construct: purchased Chemicon
T1 sequence (P35408 whole entry): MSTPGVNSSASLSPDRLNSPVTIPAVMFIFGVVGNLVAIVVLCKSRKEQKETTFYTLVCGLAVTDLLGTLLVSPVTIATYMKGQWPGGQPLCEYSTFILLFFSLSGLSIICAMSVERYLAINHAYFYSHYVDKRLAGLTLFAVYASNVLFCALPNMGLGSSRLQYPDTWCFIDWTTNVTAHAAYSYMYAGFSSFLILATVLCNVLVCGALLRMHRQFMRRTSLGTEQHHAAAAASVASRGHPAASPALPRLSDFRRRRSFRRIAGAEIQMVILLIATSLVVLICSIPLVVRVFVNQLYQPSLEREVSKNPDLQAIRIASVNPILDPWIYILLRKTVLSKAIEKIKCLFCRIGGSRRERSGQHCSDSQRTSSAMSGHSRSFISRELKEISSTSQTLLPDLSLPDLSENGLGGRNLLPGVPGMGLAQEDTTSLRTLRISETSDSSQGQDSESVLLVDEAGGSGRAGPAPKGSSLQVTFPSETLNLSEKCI
Experimental: Test Example 2: Evaluation Test of Human EP4 Receptor Affinity
[^3H]PGE2 and a human EP4 cell membrane fraction (Chemicon) were diluted with an assay buffer (50 mmol/L HEPES-NaOH, 5 mmol/L MgCl2, 1 mmol/L CaCl2 (pH 7.4), 0.5% bovine serum albumin (BSA)), and the test compound and unlabeled PGE2 (Sigma) were diluted with DMSO and the assay buffer. The composition of the reaction liquid (250 μL) was set to be as follows: 175 μL of an assay buffer containing [^3H]PGE2 (final concentration of 2.9 nmol/L), 50 μL of a membrane fraction (Chemicon, 40 μg protein/mL), and 25 μL of a test compound (final concentrations of 0.1, 1, 10, 100, and 1000 nmol/L). For the measurement of the non-specific binding, the unlabeled PGE2 was added to a final concentration of 10 μmol/L. The final concentration of DMSO was set to 1%. The reaction liquid was incubated at 25° C. for 60 minutes. The reaction liquid was filtered with a GF/C filter paper (Whatman), using a cell harvester (Brandel). The filter paper after filtration was washed three times with 1 mL of a solution containing 50 mmol/L HEPES-NaOH (pH 7.4), 500 mmol/L NaCl, and 0.1% BSA. […] The radioactive activity was measured using a liquid scintillation counter (Perkin Elmer). […] The specific binding amount was determined by subtracting the non-specific binding amount from the total binding amount. The Ki value was calculated according to a standard method.

SD rats = experiment: Evaluation on rat gastrointestinal disorder (7-day oral administration, hematology, blood chemistry, histopathology); type: in vivo; settings: 3 mg/kg po for 7 days
Experimental: Test Example 10: Evaluation on Rat Gastrointestinal Disorder
SD rats (male, 7-week old) were used. A test compound dissolved in a mixed solution of PEG 400: 20% Tween 80: 1 mol/L aqueous NaHCO3 solution=1:4:5 was orally administered at a dose of 3 mg/kg (n=5, 5 mL/kg) for 7 days. The aforementioned mixed liquid was orally administered to a group not treated with the test drug (n=5) at a volume of 5 mL/kg for 7 days. Blood was collected under fasting overnight for hematology and blood chemistry tests on the following day after the final administration. After blood collection, the animal which had been euthanized by exsanguination was immediately necropsied, and the stomach, duodenum, jejunum, ileum, cecum, colon, rectum, and liver were excised therefrom. The excised organs were fixed in a 10% neutral buffered formalin solution and used for histopathological evaluation.

- Ki (human EP4 receptor): 1.46 nM
- Findings indicating abnormality (hematology, blood chemistry, histopathology of gastrointestinal organs and liver) (SD rats): not observed
Structure (SMILES): Cc1nn(Cc2cc3ccccc3cn2)c(C(=O)N[C@@H](C)c2ccc(C(=O)O)cc2)c1Br [Compound A, 4-[(1S)-1-({[4-bromo-1-(isoquinolin-3-ylmethyl)-3-methyl-1H-pyrazol-5-yl]carbonyl}amino)ethyl]benzoic acid]
- Inhibitory rate of ACR (albumin-creatinine ratio in urine) [1]: 44%
